The subject of test [1] is Ishikawa. The experiment in a line: Stimulation of endometrial activity in Ishikawa human endometrial adenocarcinoma cells. It counts as functional, cell-based.
Test [2] concerns Ishikawa. The test is described as follows: Percentp stimulation of alkaline phosphate activity in Ishikawa human endometrial adenocarcinoma cells relative to Moxestrol. The format is functional.
Test [3] concerns the target Estrogen receptor (Mus musculus, UniProt O08537+P19785). The test is described as follows: Uterotrophic activity in immature mouse. The format is functional, tissue-based, Uterus.
For test [4], the target named is Estrogen receptor (Mus musculus) (UniProt O08537+P19785). The test is described as follows: Percent maximal relative agonism for uterotrophic activity in immature mouse model. The format is functional.
Test [5] concerns the target Estrogen receptor (Homo sapiens, UniProt Q92731+P03372). The test is described as follows: Binding affinity for estrogen receptor of rabbit uterine […] muscle tissue. It counts as protein assay, Oryctolagus cuniculus. The following applies: target entry is the homologue from another species.

The source of these data is ChEMBL document CHEMBL1133400, “Synthesis and pharmacology of a novel pyrrolo[2,1,5-cd] indolizine (NNC 45-0095), a high affinity non-steroidal agonist for the estrogen receptor” (Bioorg Med Chem Lett, 2000).

SMILES strings stand for the structures.

The Emax is the size of the effect at its maximum, as opposed to the concentration needed. Usually IC50 stands for the concentration at which inhibition is half-maximal. Lower therefore signals greater potency.

Chain of Estrogen receptor (Mus musculus) (O08537 whole entry, looked up): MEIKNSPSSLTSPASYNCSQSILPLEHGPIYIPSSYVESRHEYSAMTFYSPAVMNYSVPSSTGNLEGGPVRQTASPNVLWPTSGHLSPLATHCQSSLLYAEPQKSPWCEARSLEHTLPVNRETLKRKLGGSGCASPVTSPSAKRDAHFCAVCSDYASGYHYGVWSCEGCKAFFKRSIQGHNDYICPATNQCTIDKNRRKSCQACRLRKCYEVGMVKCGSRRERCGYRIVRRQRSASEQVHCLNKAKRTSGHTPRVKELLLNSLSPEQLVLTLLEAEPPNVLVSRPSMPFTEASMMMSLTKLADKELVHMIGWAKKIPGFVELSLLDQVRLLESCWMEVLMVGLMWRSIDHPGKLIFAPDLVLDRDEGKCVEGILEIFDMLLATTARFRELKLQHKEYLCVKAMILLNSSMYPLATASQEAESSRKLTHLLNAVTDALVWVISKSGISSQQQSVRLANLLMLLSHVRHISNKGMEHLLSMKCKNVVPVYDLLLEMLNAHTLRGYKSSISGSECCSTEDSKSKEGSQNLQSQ
Chain of Estrogen receptor (Mus musculus) (P19785 whole entry, looked up): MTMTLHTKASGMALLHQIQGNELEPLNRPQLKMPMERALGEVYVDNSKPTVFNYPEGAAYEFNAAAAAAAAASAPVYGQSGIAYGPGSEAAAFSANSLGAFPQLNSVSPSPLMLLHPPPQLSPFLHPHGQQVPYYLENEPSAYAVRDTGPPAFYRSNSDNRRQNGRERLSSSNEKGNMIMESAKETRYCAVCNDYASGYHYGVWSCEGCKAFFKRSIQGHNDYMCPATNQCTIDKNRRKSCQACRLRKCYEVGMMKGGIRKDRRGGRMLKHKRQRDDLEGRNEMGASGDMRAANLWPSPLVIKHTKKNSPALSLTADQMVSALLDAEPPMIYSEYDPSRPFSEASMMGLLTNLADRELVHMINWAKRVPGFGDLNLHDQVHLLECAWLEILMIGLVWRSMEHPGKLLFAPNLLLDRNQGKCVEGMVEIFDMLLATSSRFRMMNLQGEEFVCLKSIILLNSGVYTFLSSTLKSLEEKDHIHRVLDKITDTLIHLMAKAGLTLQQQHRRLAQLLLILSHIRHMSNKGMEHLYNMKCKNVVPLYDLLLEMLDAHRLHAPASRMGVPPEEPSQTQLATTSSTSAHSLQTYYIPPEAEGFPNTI

Take `CCc1c(-c2ccc(O)cc2)c2ccc3cccc1n32`: the EC50 in test [1] came to 13 nM; in test [3], 0.96 nM/g. The compound also showed a maximum response (Emax) in test [2] of 105%. The compound further yielded an Activity in test [4] of 76%.
On to `C#C[C@]1(O)CC[C@H]2C3CCc4cc(O)ccc4[C@H]3[C@@H](OC)C[C@@]21C` (single isomer, unassigned) [MOXESTROL], for which the EC50 in test [1] came out at 0.1 nM. Moreover, in test [2], the maximum response (Emax) turned out to be 100%. This compound also yielded a concentration for half-maximal inhibition (IC50) in test [5] of 2.5 nM.
